Results taken from patent publication US11613522B2, “Herbicidally active 3-phenylisoxazoline-5-carboxamides of tetrahydro- and dihydrofurancarboxamides” (BAYER AKTIENGESELLSCHAFT, priority 2017, dated 2023).

Assays:
Assay type in all cases: in vivo
Alopecurus myosuroides [1] = assay: Pre-emergence herbicidal activity against ALOMY; conditions: dosage 80 g/ha, scored visually after about 3 weeks vs untreated controls
From the text: (§1) 1. Pre-emergence herbicidal action against harmful plants and crop plant compatibility Seeds of monocotyledonous and dicotyledonous weed plants and crop plants are placed in plastic or wood fiber pots and covered with soil. The compounds of the invention, formulated in the form of wettable powders (WP) or as emulsion concentrates (EC), are then applied onto the surface of the covering soil as aqueous suspension or emulsion with addition of 0.5% additive at a water application rate of 600 l/ha (converted). After the treatment, the pots are placed in a greenhouse and kept under good growth conditions for the trial plants. After about 3 weeks, the effect of the preparations is scored visually in comparison with untreated controls as percentages. For example, 100% activity=the plants have died, 0% activity=like control plants. [table]

Amaranthus retroflexus [2] = assay: Pre-emergence herbicidal activity against AMARE; conditions: dosage 80 g/ha, scored visually after about 3 weeks vs untreated controls
From the text: as §1

Polygonum convolvulus [3] = assay: Pre-emergence herbicidal activity against POLCO; conditions: dosage 80 g/ha, scored visually after about 3 weeks vs untreated controls
From the text: as §1

Lolium rigidum [4] = assay: Pre-emergence herbicidal activity against LOLRI; conditions: dosage 80 g/ha, scored visually after about 3 weeks vs untreated controls
From the text: as §1

Veronica persica [5] = assay: Pre-emergence herbicidal activity against VERPE; conditions: dosage 80 g/ha
From the text: as §1

Stellaria media [6] = assay: Post-emergence herbicidal activity against STEME; conditions: dosage 320 g/ha, rated visually after about 3 weeks
Experimental: (§2) [table] Seeds of monocotyledonous and dicotyledonous weeds and crop plants are placed in sandy loam in plastic or wood-fiber pots, covered with soil and cultivated in a greenhouse under controlled growth conditions. 2 to 3 weeks after sowing, the test plants are treated at the one-leaf stage. The compounds of the invention, formulated in the form of wettable powders (WP) or as emulsion concentrates (EC), are then sprayed onto the green parts of the plants as aqueous suspension or emulsion with addition of 0.5% additive at a water application rate of 600 l/ha (converted). After the test plants had been kept in the greenhouse under optimum growth conditions for about 3 weeks, the activity of the preparations is rated visually in comparison to untreated controls. For example, 100% activity=the plants have died, 0% activity=like control plants.

Pharbitis purpurea [7] = assay: Post-emergence herbicidal activity against PHBPU; conditions: dosage 320 g/ha, rated visually after about 3 weeks
Experimental: as §2

Hordeum murinum [8] = assay: Pre-emergence herbicidal activity against HORMU; conditions: dosage 80 g/ha
From the text: as §1

Avena fatua [9] = assay: Post-emergence herbicidal activity against AVEFA; conditions: dosage 320 g/ha, rated visually after about 3 weeks
Experimental: as §2

Veronica persica [10] = assay: Post-emergence herbicidal activity against VERPE; conditions: dosage 320 g/ha, rated visually after about 3 weeks
Experimental: as §2

Echinochloa crus-galli [11] = assay: Pre-emergence herbicidal activity against ECHCG; conditions: dosage 80 g/ha, scored visually after about 3 weeks vs untreated controls
From the text: as §1

Avena fatua [12] = assay: Pre-emergence herbicidal activity against AVEFA; conditions: dosage 80 g/ha, scored visually after about 3 weeks vs untreated controls
From the text: as §1

Setaria viridis [13] = assay: Post-emergence herbicidal activity against SETVI; conditions: dosage 320 g/ha, rated visually after about 3 weeks
Experimental: as §2

Echinochloa crus-galli [14] = assay: Post-emergence herbicidal activity against ECHCG; conditions: dosage 320 g/ha, rated visually after about 3 weeks
Experimental: as §2

Abutilon theophrasti = assay: Post-emergence herbicidal activity against ABUTH; conditions: dosage 320 g/ha, rated visually after about 3 weeks
Experimental: as §2

Polygonum convolvulus [15] = assay: Post-emergence herbicidal activity against POLCO; conditions: dosage 320 g/ha, rated visually after about 3 weeks
Experimental: as §2

Viola tricolor [16] = assay: Post-emergence herbicidal activity against VIOTR; conditions: dosage 320 g/ha, rated visually after about 3 weeks
Experimental: as §2

Hordeum murinum [17] = assay: Post-emergence herbicidal activity against HORMU; conditions: dosage 320 g/ha, rated visually after about 3 weeks
Experimental: as §2

Alopecurus myosuroides [18] = assay: Post-emergence herbicidal activity against ALOMY; conditions: dosage 320 g/ha, rated visually after about 3 weeks
Experimental: as §2

[19] = Pre-emergence herbicidal action against harmful plants (summary of the tables); conditions: 504 h, application rate of 0.08 kg of active substance or less per hectare, read-out: herbicidal action, pre-emergence treatment (very good activity)
From the text: as §1, with “plants.” for “plants. [table]”
As shown by the results, compounds according to the invention such as, for example, the compounds No. I-02 and other compounds from the tables (I-05, I-10, I-11, I-12, I-13, I-14, I-15, I-16, I-17, I-18, I-19, I-20, I-21, I-22, I-23, I-24, I-25, I-26, I-27, I-28, I-29) have, when used for pre-emergence treatment, very good activity (80% to 100% herbicidal action) against harmful plants such as Abutilon theophrasti, Alopecurus myosuroides, Amaranthus retroflexus, Avena fatua, Cyperus esculentus, Echinochloa crus-galli, Hordeum murinum, Lolium rigidum, Pharbitis purpurea, Polygonum convolvulus, Setaria viridis, Stellaria media, Veronica persica and Viola tricolor at an application rate of 0.08 kg of active substance or less per hectare.

Setaria viridis [20] = assay: Pre-emergence herbicidal activity against SETVI; conditions: dosage 80 g/ha, scored visually after about 3 weeks vs untreated controls
From the text: as §1

Stellaria media [21] = assay: Pre-emergence herbicidal activity against STEME; conditions: dosage 80 g/ha, scored visually after about 3 weeks vs untreated controls
From the text: as §1

Viola tricolor [22] = assay: Pre-emergence herbicidal activity against VIOTR; conditions: dosage 80 g/ha, scored visually after about 3 weeks vs untreated controls
From the text: as §1

Lolium rigidum [23] = assay: Post-emergence herbicidal activity against LOLRI; conditions: dosage 320 g/ha, rated visually after about 3 weeks
Experimental: as §2

Amaranthus retroflexus [24] = assay: Post-emergence herbicidal activity against AMARE; conditions: dosage 320 g/ha, rated visually after about 3 weeks
Experimental: as §2

Pharbitis purpurea [25] = assay: Pre-emergence herbicidal activity against PHBPU; conditions: dosage 80 g/ha, scored visually after about 3 weeks vs untreated controls
From the text: as §1

C=C[C@]1(C(=O)N[C@@H]2CO[C@H](C(=O)NN(C)C)C2)CC(c2cc(F)cc(F)c2)=NO1 (mixture of isomers) [Example I-15, (5S)-3-(3,5-difluorophenyl)-N-[cis-5-(dimethylaminocarbamoyl)tetrahydrofuran-3-yl]-5-vinyl-4H-isoxazole-5-carboxamide]
pest or weed control at 80 g/ha (Alopecurus myosuroides [1]; Alopecurus myosuroides, 504 h): 100%
pest or weed control at 80 g/ha (Amaranthus retroflexus [2]; Amaranthus retroflexus, 504 h): 100%
pest or weed control at 80 g/ha (Polygonum convolvulus [3]; Fallopia convolvulus, 504 h): 100%
pest or weed control at 80 g/ha (Lolium rigidum [4]; Lolium rigidum, 504 h): 100%
pest or weed control at 80 g/ha (Veronica persica [5]; Veronica persica, 504 h): 100%
pest or weed control at 320 g/ha (Stellaria media [6]; Stellaria media, 504 h): 90%
pest or weed control at 320 g/ha (Pharbitis purpurea [7]; Ipomoea purpurea, 504 h): 80%
pest or weed control at 80 g/ha (Hordeum murinum [8]; Hordeum murinum, 504 h): 90%
pest or weed control at 320 g/ha (Avena fatua [9]; Avena fatua, 504 h): 100%
pest or weed control at 320 g/ha (Veronica persica [10]; Veronica persica, 504 h): 80%
pest or weed control at 80 g/ha (Echinochloa crus-galli [11]; Echinochloa crus-galli, 504 h): 90%
pest or weed control at 80 g/ha (Avena fatua [12]; Avena fatua, 504 h, read-out: Pre-emergence herbicidal activity in % against AVEVA (AVEFA)): 90%
pest or weed control at 320 g/ha (Setaria viridis [13]; Setaria viridis, 504 h): 80%
pest or weed control at 320 g/ha (Echinochloa crus-galli [14]; Echinochloa crus-galli, 504 h): 90%
pest or weed control at 320 g/ha (Abutilon theophrasti; Abutilon theophrasti, 504 h): 80%
pest or weed control at 320 g/ha (Polygonum convolvulus [15]; Fallopia convolvulus, 504 h): 90%
pest or weed control at 320 g/ha (Viola tricolor [16]; Viola tricolor, 504 h): 80%
pest or weed control at 320 g/ha (Hordeum murinum [17]; Hordeum murinum, 504 h): 90%
pest or weed control at 320 g/ha (Alopecurus myosuroides [18]; Alopecurus myosuroides, 504 h): 100%
pest or weed control at 80 g/ha [19]: 80 to 100%
pest or weed control at 80 g/ha (Setaria viridis [20]; Setaria viridis, 504 h): 100%
pest or weed control at 80 g/ha (Stellaria media [21]; Stellaria media, 504 h): 100%
pest or weed control at 80 g/ha (Viola tricolor [22]; Viola tricolor, 504 h): 100%
pest or weed control at 320 g/ha (Lolium rigidum [23]; Lolium rigidum, 504 h): 90%

CN(C)C(=O)[C@@H]1C[C@H](NC(=O)[C@@]2(C)CC(c3cc(F)cc(F)c3)=NO2)CO1 [Example I-25]
Pre-emergence herbicidal activity in % against ALOMY (Alopecurus myosuroides [1]): 100%
Post-emergence herbicidal activity in % against AMARE (Amaranthus retroflexus [24]): 80%
Pre-emergence herbicidal activity in % against AMARE (Amaranthus retroflexus [2]): 100%
Pre-emergence herbicidal activity in % against POLCO (Polygonum convolvulus [3]): 100%
Pre-emergence herbicidal activity in % against LOLRI (Lolium rigidum [4]): 100%
Pre-emergence herbicidal activity in % against VERPE (Veronica persica [5]): 90%
Post-emergence herbicidal activity in % against STEME (Stellaria media [6]): 90%
Post-emergence herbicidal activity in % against PHBPU (Pharbitis purpurea [7]): 90%
Post-emergence herbicidal activity in % against AVEFA (Avena fatua [9]): 90%
Post-emergence herbicidal activity in % against VERPE (Veronica persica [10]): 80%
Pre-emergence herbicidal activity in % against PHBPU (Pharbitis purpurea [25]): 90%
Pre-emergence herbicidal activity in % against ECHCG (Echinochloa crus-galli [11]): 80%
Pre-emergence herbicidal activity in % against AVEVA (AVEFA) (Avena fatua [12]): 90%
Post-emergence herbicidal activity in % against SETVI (Setaria viridis [13]): 80%
Post-emergence herbicidal activity in % against ABUTH (Abutilon theophrasti): 80%
Post-emergence herbicidal activity in % against POLCO (Polygonum convolvulus [15]): 80%
Post-emergence herbicidal activity in % against HORMU (Hordeum murinum [17]): 90%
Post-emergence herbicidal activity in % against ALOMY (Alopecurus myosuroides [18]): 100%
Pre-emergence herbicidal activity in % against SETVI (Setaria viridis [20]): 100%
Pre-emergence herbicidal activity in % against STEME (Stellaria media [21]): 100%
Pre-emergence herbicidal activity in % against VIOTR (Viola tricolor [22]): 100%
Post-emergence herbicidal activity in % against LOLRI (Lolium rigidum [23]): 100%

C=C[C@]1(C(=O)N[C@@H]2CO[C@H](C(=O)NCCC(=O)OC)C2)CC(c2cc(F)cc(F)c2)=NO1 [Example I-20]
Pre-emergence herbicidal activity in % against ALOMY (Alopecurus myosuroides [1]): 100%
Post-emergence herbicidal activity in % against AMARE (Amaranthus retroflexus [24]): 90%
Pre-emergence herbicidal activity in % against AMARE (Amaranthus retroflexus [2]): 100%
Pre-emergence herbicidal activity in % against POLCO (Polygonum convolvulus [3]): 100%
Pre-emergence herbicidal activity in % against LOLRI (Lolium rigidum [4]): 100%
Post-emergence herbicidal activity in % against STEME (Stellaria media [6]): 80%
Post-emergence herbicidal activity in % against PHBPU (Pharbitis purpurea [7]): 90%
Pre-emergence herbicidal activity in % against HORMU (Hordeum murinum [8]): 100%
Post-emergence herbicidal activity in % against AVEFA (Avena fatua [9]): 100%
Post-emergence herbicidal activity in % against VERPE (Veronica persica [10]): 80%
Pre-emergence herbicidal activity in % against PHBPU (Pharbitis purpurea [25]): 80%
Pre-emergence herbicidal activity in % against ECHCG (Echinochloa crus-galli [11]): 100%
Pre-emergence herbicidal activity in % against AVEVA (AVEFA) (Avena fatua [12]): 100%
Post-emergence herbicidal activity in % against SETVI (Setaria viridis [13]): 90%
Post-emergence herbicidal activity in % against ECHCG (Echinochloa crus-galli [14]): 100%
Post-emergence herbicidal activity in % against ABUTH (Abutilon theophrasti): 80%
Post-emergence herbicidal activity in % against POLCO (Polygonum convolvulus [15]): 80%
Post-emergence herbicidal activity in % against VIOTR (Viola tricolor [16]): 80%
Post-emergence herbicidal activity in % against HORMU (Hordeum murinum [17]): 100%
Post-emergence herbicidal activity in % against ALOMY (Alopecurus myosuroides [18]): 100%
Pre-emergence herbicidal activity in % against SETVI (Setaria viridis [20]): 100%
Pre-emergence herbicidal activity in % against STEME (Stellaria media [21]): 100%
Pre-emergence herbicidal activity in % against VIOTR (Viola tricolor [22]): 100%
Post-emergence herbicidal activity in % against LOLRI (Lolium rigidum [23]): 100%
